{"source": "patent US20110048980A1", "about": "“Fatty Acid Oxidation Inhibitors Treating Hyperglycemia and Related Disorders” (Symcopeia Company, priority 2007, published 2011)", "origin": "cited, not measured here", "key": {"[1]": {"details": "in vivo"}, "[2]": {"details": "pioglitazone added to other glucose lowering drugs, equivalent glucose-lowering"}}, "data": [{"smiles": "COc1ccccc1OCC(O)CN1CCN(CC(=O)Nc2c(C)cccc2C)CC1", "note": "(stereo not shown) [Ranolazine, ranolazine]", "values": [{"measurement": "QT interval effect", "setting": "[1]", "value": "causes QT interval prolongation"}]}, {"smiles": "CCc1ccc(CCOc2ccc(CC3SC(=O)NC3=O)cc2)nc1", "note": "(stereo not shown) [pioglitazone]", "values": [{"measurement": "increase in risk of congestive heart failure (CHF)", "setting": "[2]", "value": "2-3 fold"}]}, {"smiles": "CN(CCOc1ccc(CC2SC(=O)NC2=O)cc1)c1ccccn1", "note": "(stereo not shown) [rosiglitazone]", "values": [{"measurement": "CHD events, relative risk", "setting": "IGT patients, not statistically reduced, trend", "value": 1.37}, {"measurement": "increase in incidence of CHF", "setting": "pre-diabetic population", "value": 7, "unit": "fold"}]}]}
